{"source": "patent US20240130675A1", "about": "“Methods for Treating Autism Spectrum Disorder” (The General Hospital Corporation, priority 2021, published 2024)", "key": {"youth with ASD": {"test_system": "youth with ASD", "experiment": "Treatment response based on baseline PgACC glutamate activity (high vs normal; treatment group-by-glutamate-by-visit interaction)", "type": "in vivo, human", "conditions": "for Mean # of AEs / # of Participants with AEs / Treatment-Limiting AEs: TOLERABILITY", "method": "The primary outcome was analyzed using Pearson's chi-square test at the a priori defined significance level of 0.05. Secondary measures of efficacy were analyzed using mixed-effects regression models with robust standard errors to account for the repeated measures on each subject. The primary and secondary measures were compared between memantine versus placebo as well as between those with high versus normal baseline glutamate activity levels. Participants were categorized as having high versus normal glutamate activity levels at baseline using z-scores. The population mean and SD for z-score calculations were derived from healthy control glutamate activity levels (baseline and endpoint). Glutamate activity levels with z-scores≥1 were categorized as high glutamate activity levels, those with z-scores<1 and >−1 were categorized as normal glutamate activity levels and those with z-scores≤−1 were categorized as low glutamate activity levels. Changes in PgACC glutamate activity levels within groups were tested using paired t-tests and changes between groups were tested using two-sample t-tests. We also performed ROC curve analyses to determine the predictive utility of baseline PgACC glutamate activity levels in identifying treatment responders within the memantine and placebo groups. All analyses apart from the analysis of the primary outcome were considered exploratory. Analyses were performed using a modified intent-to-treat analysis set which included all randomized patients who were regarded exposed to study medication (completed at least two weeks of treatment) and had at least one follow-up assessment.\nThe mixed-effects regression models used to analyze the secondary measures of efficacy predicted the outcome measure from treatment group (memantine versus placebo), study visit (continuous), and the treatment group-by-study visit interaction, which is our test of efficacy. To examine the effect of baseline PgACC glutamate activity level on the response to treatment, we predicted outcomes measures from treatment group, study visit (continuous), PgACC glutamate activity level (continuous), treatment group-by-study visit interaction, glutamate activity level-by-study visit interaction, treatment group-by-glutamate activity level interaction, and treatment group-by-glutamate activity level-by-study visit interaction. All mixed-effects regression models had random intercepts by subject ID, used robust standard errors to account for the repeated measures on each subject, and used an independent covariance structure for the random effects. […] All missing data were assumed to be missing at random.\nEffect sizes are presented as standardized mean differences (SMD) for continuous outcomes and odds ratios (OR) for dichotomous outcomes. The SMDs for the difference of the changes in scores over time between memantine and placebo and between high glutamate and normal glutamate were calculated as Cohen's d using the following calculations: the difference in the change scores between the two groups divided by the pooled standard deviation. The SMDs for changes in scores within groups were calculated as Cohen's d using the following calculation: difference in score from baseline to endpoint divided by the pooled standard deviation. For comparisons of memantine versus placebo and high glutamate versus normal glutamate, positive SMDs and ORs>1 indicate better improvement in the memantine group and high glutamate group, respectively. For comparisons of ASD versus healthy controls, positive SMDs indicate lower glutamate activity levels in the ASD group. As defined by Cohen (Statistical Power Analysis for the Behavioral Sciences. 2nd ed. Hillsdale, NJ: Erlbaum. 1988), a SMD=0.2 is interpreted as a small effect size, SMD=0.5 as medium, and SMD=0.8 as large. We considered ORs>2 to be clinically meaningful."}, "adults with HF-ASD [1]": {"test_system": "adults with HF-ASD", "experiment": "Uncontrolled (pilot) trial of memantine in adults with HF-ASD (Joshi et al., 2016)", "type": "in vivo, human", "conditions": "estimate from pilot study, used for sample size", "description": "Memantine is a moderate-affinity, non-competitive, NMDA receptor antagonist that is approved by the U.S. Food and Drug Administration (FDA) for the treatment of moderate to severe Alzheimer's disease (U.S. FDA, 2003).\nWe determined a priori that we would need a sample size of 40 participants in total (20 participants per group) to detect this difference in response rate at a 2-sided significance level of 0.05 with 80% power. Our final sample consisted of 16 participants in the memantine group and 19 participants in the placebo group with response data. With this sample size, we had […] power to detect the aforementioned difference in response rates."}, "adults with HF-ASD [2]": {"test_system": "adults with HF-ASD", "conditions": "cited from earlier work"}, "[3]": {"conditions": "HIGH glutamate activity levels, MEM N = 10"}, "[4]": {"conditions": "NORMAL glutamate activity levels, MEM N = 5"}, "[5]": {"conditions": "NORMAL glutamate activity levels, MEM N = 8"}}}
{"smiles": "CC12CC3CC(C)(C1)CC(N)(C3)C2", "note": "[MEM, memantine]", "values": [{"measurement": "ABC-Social Withdrawal MD", "setting": "youth with ASD; [3]", "result": "−8.5 ± 7.6"}, {"measurement": "ADHD-RS MD", "setting": "youth with ASD; [3]", "result": "−9.9 ± 11.7"}, {"measurement": "CASI-ANX MD", "setting": "youth with ASD; [3]", "result": "−10.3 ± 5.1"}, {"measurement": "CDRS-R MD", "setting": "youth with ASD; [3]", "result": "−9.8 ± 11.2"}, {"measurement": "CGI-1≤2", "setting": "youth with ASD; [3]", "result": "9 (90) N (%)"}, {"measurement": "CY-BOCS-PDD MD", "setting": "youth with ASD; [3]", "result": "−0.5 ± 1.6"}, {"measurement": "GAF MD", "setting": "youth with ASD; [3]", "result": "9.1 ± 5.4"}, {"measurement": "SRS-Autistic Mannerisms MD", "setting": "youth with ASD; [3]", "result": "−10.3 ± 5.3"}, {"measurement": "SRS-SCI MD", "setting": "youth with ASD; [3]", "result": "−39.8 ± 21.1"}, {"measurement": "SRS-Social Awareness MD", "setting": "youth with ASD; [3]", "result": "−5.0 ± 4.2"}, {"measurement": "SRS-Social Cognition MD", "setting": "youth with ASD; [3]", "result": "−8.1 ± 5.8"}, {"measurement": "SRS-Social Communication MD", "setting": "youth with ASD; [3]", "result": "−17.9 ± 7.7"}, {"measurement": "SRS-Social Motivation MD", "setting": "youth with ASD; [3]", "result": "−8.8 ± 5.3"}, {"measurement": "SRS-Total MD", "setting": "youth with ASD; [3]", "result": "−50.1 ± 25.7"}, {"measurement": "≥25% ↓↓SRS", "setting": "youth with ASD; [3]", "result": 9, "unit": "N"}, {"measurement": "≥25% ↓↓SRS + CGI-I ≤ 2", "setting": "youth with ASD; [3]", "result": "8 (80) N (%)"}, {"measurement": "ABC-Social Withdrawal MD", "setting": "youth with ASD; [4]", "result": "−3.6 ± 5.6"}, {"measurement": "ADHD-RS MD", "setting": "youth with ASD; [4]", "result": "−8.2 ± 7.4"}, {"measurement": "CASI-ANX MD", "setting": "youth with ASD; [4]", "result": "−2.4 ± 5.2"}, {"measurement": "CDRS-R MD", "setting": "youth with ASD; [4]", "result": "−8.0 ± 11.8"}, {"measurement": "CGI-≤2", "setting": "youth with ASD; [4]", "result": "3 (60) N (%)"}, {"measurement": "CY-BOCS-PDD MD", "setting": "youth with ASD; [4]", "result": "−2.0 ± 2.8"}, {"measurement": "GAF MD", "setting": "youth with ASD; [4]", "result": "4.6 ± 4.3"}, {"measurement": "SRS-Autistic Mannerisms MD", "setting": "youth with ASD; [4]", "result": "−1.8 ± 5.1"}, {"measurement": "SRS-SCI MD", "setting": "youth with ASD; [4]", "result": "−9.2 ± 5.3"}, {"measurement": "SRS-Social Awareness MD", "setting": "youth with ASD; [4]", "result": "−0.8 ± 1.8"}, {"measurement": "SRS-Social Cognition MD", "setting": "youth with ASD; [4]", "result": "−2.0 ± 2.6"}, {"measurement": "SRS-Social Communication MD", "setting": "youth with ASD; [4]", "result": "−2.8 ± 2.7"}, {"measurement": "SRS-Social Motivation MD", "setting": "youth with ASD; [4]", "result": "−3.0 ± 4.0"}, {"measurement": "SRS-Total MD", "setting": "youth with ASD; [4]", "result": "−10.6 ± 10.6"}, {"measurement": "≥25% WISRS±CGI-1≤2", "setting": "youth with ASD; [4]", "result": "0 (0) N (%)"}, {"measurement": "≥25% WLSRS", "setting": "youth with ASD; [4]", "result": "0 (0) N (%)"}, {"measurement": "Mean # of AEs", "setting": "youth with ASD; HIGH glutamate activity levels, MEM N = 7", "result": "2.4 ± 1.3"}, {"measurement": "# of Participants with AEs", "setting": "youth with ASD; [3]", "result": "7 (70) N (%)"}, {"measurement": "Treatment-Limiting AEs", "setting": "youth with ASD; [3]", "result": "0 (0) N (%)"}, {"measurement": "Mean # of AEs", "setting": "youth with ASD; NORMAL glutamate activity levels, MEM N = 6", "result": "2.8 ± 1.0"}, {"measurement": "# of Participants with AEs", "setting": "youth with ASD; [5]", "result": "4 (50) N (%)"}, {"measurement": "Treatment-Limiting AEs", "setting": "youth with ASD; [5]", "result": "2 (25) N (%)"}, {"measurement": "Association of higher baseline PgACC glutamate activity levels with change scores (SRS Total, SRS-SCI, ABC-Social Withdrawal)", "setting": "youth with ASD; memantine group", "result": "greater change scores"}, {"measurement": "Estimated share of participants on memantine responding to treatment", "setting": "adults with HF-ASD [1]", "result": 57, "unit": "%"}, {"measurement": "Social behaviors", "setting": "adults with HF-ASD [2]; 12-week treatment, 20 mg/day, adults with HF-ASD", "result": "significant improvement in social behaviors"}, {"measurement": "Responders", "setting": "adults with HF-ASD [2]; pilot study, 15-20 mg daily", "result": "four out of seven"}]}
